According to patent publication US20180000085A1, “USE OF PICOLINAMIDE COMPOUNDS WITH FUNGICIDAL ACTIVITY” (DOW AGROSCIENCES LLC, priority 2014, published 2018):

Legend:
Puccinia triticina = assay: Wheat brown rust (PUCCRT) disease control on wheat seedlings; assay type: in vivo; parameters: key to PUCCRT 3DC, HV activity at 100 ppm (% control rating) / PUCCRT disease control, 3DC / PUCCRT 1DP disease control rating, HV activity / PUCCRT 3DC disease control rating, HV activity / PUCCRT 3DC, LV activity at 125.1 g/H (% Control rating) / PUCCRT 1DP, LV activity at 125.1 g/H (% Control rating) / PUCCRT 3DC disease control rating, LV activity at 125.1 g/H / PUCCRT 1DP disease control rating, LV activity at 125.1 g/H / PUCCRT 3DC disease control rating, HV activity at 100 ppm / PUCCRT 1DP disease control rating, HV activity at 100 ppm / HV activity at 100 ppm PUCCRT 3DC (disease control rating) / LV activity at 125.1 g/H PUCCRT 1DP (disease control rating) / LV activity at 125.1 g/H PUCCRT 3DC (disease control rating): A: > 80; B: ≤ 80; C: Not Tested; D: No Activity Observed in the Reported Assay; settings: for PUCCRT disease control, 1DP / PUCCRT disease control, 3DC: HV activity at 100 ppm, wheat; for PUCCRT 1DP disease control rating, HV activity / PUCCRT 3DC disease control rating, HV activity: HV application at 100 ppm
Zymoseptoria tritici = assay: Leaf blotch of wheat (SEPTTR) disease control on wheat seedlings; assay type: in vivo; parameters: key to SEPTTR 1DP, HV activity at 100 ppm (% control rating) / SEPTTR 3DC, HV activity at 100 ppm (% control rating) / SEPTTR disease control, 1DP / SEPTTR disease control, 3DC / SEPTTR 1DP disease control rating, HV activity / SEPTTR 3DC disease control rating, HV activity / SEPTTR 3DC, LV activity at 125.1 g/H (% Control rating) / SEPTTR 1DP, LV activity at 125.1 g/H (% Control rating) / SEPTTR 1DP disease control rating, LV activity at 125.1 g/H / SEPTTR 3DC disease control rating, LV activity at 125.1 g/H / SEPTTR 3DC disease control rating, HV activity at 100 ppm / SEPTTR 1DP disease control rating, HV activity at 100 ppm / HV activity at 100 ppm SEPTTR 3DC (disease control rating) / HV activity at 100 ppm SEPTTR 1DP (disease control rating) / LV activity at 125.1 g/H SEPTTR 1DP (disease control rating) / LV activity at 125.1 g/H SEPTTR 3DC (disease control rating): A: > 80; B: ≤ 80; C: Not Tested; D: No Activity Observed in the Reported Assay; settings: for SEPTTR disease control, 1DP / SEPTTR disease control, 3DC: HV activity at 100 ppm, wheat; for SEPTTR 1DP disease control rating, HV activity / SEPTTR 3DC disease control rating, HV activity: HV application at 100 ppm
[1] = low volume application, 125.1 g/H, 1 day protectant
[2] = low volume application, 125.1 g/H, 3 day curative
[3] = low volume application, 125.1 g/H, 1 Day Protectant
[4] = low volume application, 125.1 g/H, 3 Day Curative
[5] = high volume application, 100 ppm, 1 day protectant
[6] = high volume application, 100 ppm, 3 day curative
[7] = 1 Day Protectant, wheat brown rust
[8] = 3 Day Curative, wheat brown rust
[9] = high volume application, 100 ppm
[10] = 1 Day Protectant, wheat leaf blotch
[11] = 3 Day Curative, wheat leaf blotch

**Q.** Which “PUCCRT 1DP disease control rating, LV activity at 125.1 g/H” value (Puccinia triticina; [1]) does the source give for `COc1ccnc(C(=O)N[C@@H](C)C(=O)O[C@@H](C)[C@@H](Oc2cccc(Cl)c2)C(C)C)c1OCOC(C)=O` [Cmpd 852] here?
**A.** The value was “A (> 80)”.

**Q.** What about the “PUCCRT 3DC disease control rating, LV activity at 125.1 g/H” value (Puccinia triticina; [2]) of the same compound?
**A.** The value was “A (> 80)”.

**Q.** What about the “SEPTTR 1DP disease control rating, LV activity at 125.1 g/H” value (Zymoseptoria tritici; [1]) of the same compound?
**A.** Its value is “B (≤ 80)”.

**Q.** And the “SEPTTR 3DC disease control rating, LV activity at 125.1 g/H” value (Zymoseptoria tritici; [2])?
**A.** The value was “A (> 80)”.

**Q.** Which “PUCCRT 1DP, LV activity at 125.1 g/H (% Control rating)” value (Puccinia triticina; [3]) does the source give for `COc1ccnc(C(=O)N[C@H](C(=O)O[C@@H](C)[C@H](Oc2ccc(C(F)(F)F)cc2)c2ccccc2)C(C)C)c1OC(C)=O` [Cmpd 585] here?
**A.** Its value is “A (> 80)”.

**Q.** What about the “PUCCRT 3DC, LV activity at 125.1 g/H (% Control rating)” value (Puccinia triticina; [4]) of the same compound?
**A.** Its value is “B (≤ 80)”.

**Q.** And the “SEPTTR 1DP, LV activity at 125.1 g/H (% Control rating)” value (Zymoseptoria tritici; [3])?
**A.** Its value is “A (> 80)”.

**Q.** And the “SEPTTR 3DC, LV activity at 125.1 g/H (% Control rating)” value (Zymoseptoria tritici; [4])?
**A.** The value was “D”.

**Q.** For `CC[C@H](OC(=O)[C@H](C)NC(=O)c1nccc(OC)c1O)[C@H](Oc1ccccc1)C(C)C` [Cmpd 815], which “PUCCRT 1DP disease control rating, HV activity at 100 ppm” value (Puccinia triticina; [5]) is on record?
**A.** Its value is “A (> 80)”.

**Q.** And the “PUCCRT 3DC disease control rating, HV activity at 100 ppm” value (Puccinia triticina; [6])?
**A.** The value was “A (> 80)”.

**Q.** What about the “SEPTTR 1DP disease control rating, HV activity at 100 ppm” value (Zymoseptoria tritici; [5]) of the same compound?
**A.** Its value is “B (≤ 80)”.

**Q.** And the “SEPTTR 3DC disease control rating, HV activity at 100 ppm” value (Zymoseptoria tritici; [6])?
**A.** Its value is “D”.

**Q.** `CCCOC(CC)C(Oc1ccccc1)C(C)OC(=O)C(CC(C)C)NC(=O)c1nccc(OC)c1O` (stereo not drawn) [Cmpd 291] was tested. Which “PUCCRT disease control, 1DP” value (Puccinia triticina; 1 Day Protectant) did it give?
**A.** The value was “B (≤ 80)”.

**Q.** What about the “PUCCRT disease control, 3DC” value (Puccinia triticina; 3 Day Curative) of the same compound?
**A.** Its value is “D”.

**Q.** And the “PUCCRT 1DP disease control rating, HV activity” value (Puccinia triticina; [7])?
**A.** The value was “B (≤ 80)”.

**Q.** And the “PUCCRT 3DC disease control rating, HV activity” value (Puccinia triticina; [8])?
**A.** Its value is “D”.

**Q.** And the “PUCCRT 1DP, HV activity at 100 ppm (% control rating)” value (Puccinia triticina; [9])?
**A.** Its value is “B (≤ 80)”.

**Q.** What about the “PUCCRT 3DC, HV activity at 100 ppm (% control rating)” value (Puccinia triticina; [9]) of the same compound?
**A.** Its value is “D”.

**Q.** What about the “SEPTTR disease control, 1DP” value (Zymoseptoria tritici; 1 Day Protectant) of the same compound?
**A.** Its value is “D”.

**Q.** What about the “SEPTTR disease control, 3DC” value (Zymoseptoria tritici; 3 Day Curative) of the same compound?
**A.** The value was “D”.

**Q.** What about the “SEPTTR 1DP disease control rating, HV activity” value (Zymoseptoria tritici; [10]) of the same compound?
**A.** The value was “D”.

**Q.** What about the “SEPTTR 3DC disease control rating, HV activity” value (Zymoseptoria tritici; [11]) of the same compound?
**A.** Its value is “D”.

**Q.** And the “SEPTTR 1DP, HV activity at 100 ppm (% control rating)” value (Zymoseptoria tritici; [9])?
**A.** The value was “D”.

**Q.** And the “SEPTTR 3DC, HV activity at 100 ppm (% control rating)” value (Zymoseptoria tritici; [9])?
**A.** Its value is “D”.

**Q.** `CCCOC(CC)C(Oc1ccccc1)C(C)OC(=O)C(NC(=O)c1nccc(OC)c1O)C(C)C` (stereo not drawn) [Cmpd 290] was tested. Which “PUCCRT disease control, 1DP” value (Puccinia triticina; 1 Day Protectant) did it give?
**A.** The value was “A (> 80)”.

**Q.** And the “PUCCRT disease control, 3DC” value (Puccinia triticina; 3 Day Curative)?
**A.** Its value is “B (≤ 80)”.

**Q.** What about the “PUCCRT 1DP disease control rating, HV activity” value (Puccinia triticina; [7]) of the same compound?
**A.** Its value is “A (> 80)”.

**Q.** What about the “PUCCRT 3DC disease control rating, HV activity” value (Puccinia triticina; [8]) of the same compound?
**A.** Its value is “B (≤ 80)”.

**Q.** And the “PUCCRT 1DP, HV activity at 100 ppm (% control rating)” value (Puccinia triticina; [9])?
**A.** The value was “A (> 80)”.

**Q.** What about the “PUCCRT 3DC, HV activity at 100 ppm (% control rating)” value (Puccinia triticina; [9]) of the same compound?
**A.** Its value is “B (≤ 80)”.

**Q.** And the “SEPTTR disease control, 1DP” value (Zymoseptoria tritici; 1 Day Protectant)?
**A.** Its value is “B (≤ 80)”.

**Q.** And the “SEPTTR disease control, 3DC” value (Zymoseptoria tritici; 3 Day Curative)?
**A.** Its value is “B (≤ 80)”.

**Q.** And the “SEPTTR 1DP disease control rating, HV activity” value (Zymoseptoria tritici; [10])?
**A.** The value was “B (≤ 80)”.

**Q.** What about the “SEPTTR 3DC disease control rating, HV activity” value (Zymoseptoria tritici; [11]) of the same compound?
**A.** Its value is “B (≤ 80)”.

**Q.** What about the “SEPTTR 1DP, HV activity at 100 ppm (% control rating)” value (Zymoseptoria tritici; [9]) of the same compound?
**A.** Its value is “B (≤ 80)”.

**Q.** And the “SEPTTR 3DC, HV activity at 100 ppm (% control rating)” value (Zymoseptoria tritici; [9])?
**A.** The value was “B (≤ 80)”.

**Q.** With `COc1ccnc(C(=O)N[C@@H](C)C(=O)O[C@@H](C)[C@@H](CC(C)C)Oc2ccc(Cl)cc2)c1O` [Cmpd 1047] as the compound, how does the “HV activity at 100 ppm PUCCRT 1DP (disease control rating)” value (Puccinia triticina; HV application, 100 ppm, 1 Day Protectant, wheat brown rust) read?
**A.** Its value is “A (> 80)”.

**Q.** And the “HV activity at 100 ppm PUCCRT 3DC (disease control rating)” value (Puccinia triticina; HV application, 100 ppm, 3 Day Curative, wheat brown rust)?
**A.** Its value is “A (> 80)”.

**Q.** And the “HV activity at 100 ppm SEPTTR 1DP (disease control rating)” value (Zymoseptoria tritici; HV application, 100 ppm, 1 Day Protectant, wheat leaf blotch)?
**A.** The value was “B (≤ 80)”.

**Q.** And the “HV activity at 100 ppm SEPTTR 3DC (disease control rating)” value (Zymoseptoria tritici; HV application, 100 ppm, 3 Day Curative, wheat leaf blotch)?
**A.** Its value is “A (> 80)”.

**Q.** `CCCOC[C@@H](Oc1ccccc1)[C@H](C)OC(=O)[C@H](CC)NC(=O)c1nccc(OC)c1OC(C)=O` [Cmpd 484] was tested. Which “PUCCRT 1DP, LV activity at 125.1 g/H (% Control rating)” value (Puccinia triticina; [3]) did it give?
**A.** The value was “B (≤ 80)”.

**Q.** And the “PUCCRT 3DC, LV activity at 125.1 g/H (% Control rating)” value (Puccinia triticina; [4])?
**A.** The value was “A (> 80)”.

**Q.** What about the “SEPTTR 1DP, LV activity at 125.1 g/H (% Control rating)” value (Zymoseptoria tritici; [3]) of the same compound?
**A.** The value was “B (≤ 80)”.

**Q.** And the “SEPTTR 3DC, LV activity at 125.1 g/H (% Control rating)” value (Zymoseptoria tritici; [4])?
**A.** Its value is “D”.

**Q.** What does the source list for `CCC(CC)C(Oc1cc(F)ccc1F)C(C)OC(=O)C(C)NC(=O)c1nccc(OC)c1O` (stereo not drawn) [Cmpd 422]?
**A.** PUCCRT 1DP disease control rating, HV activity (Puccinia triticina; [7]): A (> 80); PUCCRT 3DC disease control rating, HV activity (Puccinia triticina; [8]): B (≤ 80); SEPTTR 1DP disease control rating, HV activity (Zymoseptoria tritici; [10]): A (> 80); SEPTTR 3DC disease control rating, HV activity (Zymoseptoria tritici; [11]): B (≤ 80)
